Assay results reported in patent publication US20220265629A1, “TREATMENT OF SYSTOLIC DYSFUNCTION AND HEART FAILURE WITH REDUCED EJECTION FRACTION WITH THE COMPOUND (R)-4-(1-((3-(DIFLUOROMETHYL)-1-METHYL-1H-PYRAZOL-4-YL)SULFONYL)-1-FLUOROETHYL)-N-(ISOXAZOL-3-YL)PIPERIDINE-1-CARBOXAMIDE” (MyoKardia, Inc., priority 2019, published 2022).
Like-named read-outs stand apart in the source and are kept apart here.

Assay: Single ascending oral dose study in healthy volunteers: plasma pharmacokinetics
Assay type: in vivo, human
Details: human, plasma, oral; for concentration at 72 h: 72 Hours Postdose
Description: This example describes the first-in-human study of Compound I. Based on its mechanism of action, Compound I may offer a targeted therapy for patients with DCM caused by genetic or nongenetic mechanisms. The study was a randomized, double-blind, placebo-controlled, sequential group, single-ascending (oral) close study in healthy subjects aged 18-55 years. Eight dosing cohorts, each comprising eight healthy subjects, were enrolled. Within each cohort, subjects were randomized 6:2 to Compound I:placebo.
Subjects were resident at the clinical site for up to 5 days and 4 nights, from Day −1 (the day before dosing) to Day 4, and received a single dose of Compound I or placebo on Day 1. ECG telemetry was initiated 1 hour preclose and continued through 48 hours postclose (Day 3). Any subject with a preclose resting HR≥80 beats per minute was considered ineligible and not treated. […] Subjects returned for a safety follow-up visit 7 days (±1 day) after dosing.
All randomized study subjects received either Compound I or matching placebo as a single oral dose after a fasting period of at least 6 hours. Compound I drug substance is a crystalline, free-base, synthetic molecule with a molecular weight of 435.4 g/mol.
Compound I was provided as a powder for oral suspension. Placebo was provided as calcium carbonate powder. Both treatments were closed orally as a suspension. The suspension was made using Ora-Plus® suspending vehicle (Perrigo) and a cherry syrup flavoring vehicle (Humco), mixed 50% to 50%. The suspension was followed by approximately 100 mL water. The suspension was made up within 14 days from the time in which it was closed which was consistent with the stability data on the suspension. The suspension was made up so the volume administered to the subjects who received Compound I was the same at 20 mL.
Each subject received a close according to the cohort in which they were enrolled. Cohorts were enrolled sequentially, with each cohort receiving an escalated dose of Compound I. The closes administered were 3 mg, 10 mg, 25 mg, 50 mg, 100 mg, 175 mg, 350 mg, and 525 mg, respectively.
The concentrations of Compound I in human plasma and urine were quantitated by high performance liquid chromatography with tandem mass spectrometric detection (LC MS/MS) (Biological sample analysis study report Alturas AD17-726). Plasma samples were extracted by protein precipitation with acetonitrile containing internal standard MYK-5654. The calibration curves were linear over concentration range of 0.500 to 1000 ng/mL with a lower limit of quantification (LLOQ) of 0.500 ng/mL.
The PK Population included all subjects who received Compound I. Blood samples were collected for PK assessments. The actual timing of the samples may have been modified and/or up to an additional 2 samples may have been requested by the SRC after review of the data from previous cohorts. It was important that PK sampling occurred as closely as possible to the scheduled time (±10%). Both blood and urine samples were used for PK assessments.
In addition, for subjects who received placebo, a single plasma sample near the predicted tmax of Compound I was evaluated to confirm the lack of circulating Compound I. Plasma concentration data for Compound I was summarized using descriptive statistics, including mean, standard deviation (SD), median, minimum, and maximum values, and percent coefficient of variation. Other PK parameters included (but were not limited to) Cmax, tmax, AUC, t1/2, and MRT. Additionally, the apparent terminal-phase terminal half-life was calculated. The close proportionality of AUC and Cmax was explored.

Cn1cc(S(=O)(=O)[C@@](C)(F)C2CCN(C(=O)Nc3ccon3)CC2)c(C(F)F)n1 [Compound I, (R)-4-(1-((3-(difluoromethyl)-1-methyl-1H-pyrazol-4-yl)sulfonyl)-1-fluoroethyl)-N-(isoxazol-3-yl)piperidine-1-carboxamide]
concentration at 72 h (175 mg, 175 mg, read-out: Plasma concentration, Mean): 71.3 ng/mL | concentration at 72 h (175 mg, 175 mg, read-out: Plasma concentration, Median): 73.2 ng/mL | AUC(0-t) (175 mg, read-out: AUC0-24, Geometric Mean): 22000 ng·h/mL | AUC(0-t) (175 mg, read-out: AUC0-24, Mean): 22300 ng·h/mL | AUC(0-t) (175 mg, read-out: AUC0-24, Median): 21700 ng·h/mL | AUC(0-t) (175 mg, read-out: AUC0-48, Geometric Mean): 32300 ng·h/mL | AUC(0-t) (175 mg, read-out: AUC0-48, Mean): 32800 ng·h/mL | AUC(0-t) (175 mg, read-out: AUC0-48, Median): 32700 ng·h/mL | AUC(0-t) (175 mg, read-out: AUC0-last, Geometric Mean): 38200 ng·h/mL | AUC(0-t) (175 mg, read-out: AUC0-last, Mean): 39000 ng·h/mL | AUC(0-t) (175 mg, read-out: AUC0-last, Median): 39600 ng·h/mL | AUC(0-inf) (175 mg, read-out: AUC0-∞, Geometric Mean): 38300 ng·h/mL | AUC(0-inf) (175 mg, read-out: AUC0-∞, Mean): 39100 ng·h/mL | AUC(0-inf) (175 mg, read-out: AUC0-∞, Median): 39700 ng·h/mL | Cmax (175 mg, read-out: Cmax, Geometric Mean): 1300 ng/mL | Cmax (175 mg, read-out: Cmax, Mean): 1320 ng/mL | Cmax (175 mg, read-out: Cmax, Median): 1300 ng/mL | half-life (175 mg, read-out: Half-Life Lambda Z, Geometric Mean (converted)): 15.8 h | half-life (175 mg, read-out: Half-Life Lambda Z, Mean (converted)): 15.8 h | half-life (175 mg, read-out: Half-Life Lambda Z, Median (converted)): 16.4 h | MRT (175 mg, read-out: Mean Residence Time, Geometric Mean): 24.4 h | MRT (175 mg, read-out: Mean Residence Time, Mean): 24.6 h | MRT (175 mg, read-out: Mean Residence Time, Median): 24.4 h | Tmax (175 mg, read-out: Tmax, Geometric Mean): 5.07 h | Tmax (175 mg, read-out: Tmax, Mean): 5.11 h | Tmax (175 mg, read-out: Tmax, Median): 5 h | Vd/F (175 mg, read-out: Vz/F, Geometric Mean): 104 L | Vd/F (175 mg, read-out: Vz/F, Mean): 106 L | Vd/F (175 mg, read-out: Vz/F, Median): 101 L | AUC(0-t) (350 mg + 525 mg, read-out: AUC0-24, Geometric Mean): 40900 ng·h/mL | AUC(0-t) (350 mg + 525 mg, read-out: AUC0-24, Mean): 42100 ng·h/mL | AUC(0-t) (350 mg + 525 mg, read-out: AUC0-24, Median): 38500 ng·h/mL | AUC(0-t) (350 mg + 525 mg, read-out: AUC0-48, Geometric Mean): 60500 ng·h/mL | AUC(0-t) (350 mg + 525 mg, read-out: AUC0-48, Mean): 62400 ng·h/mL | AUC(0-t) (350 mg + 525 mg, read-out: AUC0-48, Median): 57400 ng·h/mL | AUC(0-t) (350 mg + 525 mg, read-out: AUC0-last, Geometric Mean): 70600 ng·h/mL | AUC(0-t) (350 mg + 525 mg, read-out: AUC0-last, Mean): 74000 ng·h/mL | AUC(0-t) (350 mg + 525 mg, read-out: AUC0-last, Median): 68600 ng·h/mL | AUC(0-inf) (350 mg + 525 mg, read-out: AUC0-∞, Geometric Mean): 71000 ng·h/mL | AUC(0-inf) (350 mg + 525 mg, read-out: AUC0-∞, Mean): 74400 ng·h/mL | AUC(0-inf) (350 mg + 525 mg, read-out: AUC0-∞, Median): 68800 ng·h/mL | Cmax (350 mg + 525 mg, read-out: Cmax, Geometric Mean): 2530 ng/mL | Cmax (350 mg + 525 mg, read-out: Cmax, Mean): 2580 ng/mL | Cmax (350 mg + 525 mg, read-out: Cmax, Median): 2500 ng/mL | half-life (350 mg + 525 mg, read-out: Half-Life Lambda Z, Geometric Mean (converted)): 14.5 h | half-life (350 mg + 525 mg, read-out: Half-Life Lambda Z, Mean (converted)): ~15 h | half-life (350 mg + 525 mg, read-out: Half-Life Lambda Z, Median (converted)): 14.5 h | MRT (350 mg + 525 mg, read-out: Mean Residence Time, Geometric Mean): 23.9 h | MRT (350 mg + 525 mg, read-out: Mean Residence Time, Mean): 24.3 h | MRT (350 mg + 525 mg, read-out: Mean Residence Time, Median): 23.5 h | Tmax (350 mg + 525 mg, read-out: Tmax, Geometric Mean): 4.89 h | Tmax (350 mg + 525 mg, read-out: Tmax, Mean): 5 h | Vd/F (350 mg + 525 mg, read-out: Vz/F, Geometric Mean): 126 L | Vd/F (350 mg + 525 mg, read-out: Vz/F, Mean): 132 L | Vd/F (350 mg + 525 mg, read-out: Vz/F, Median): 116 L | concentration at 6 h (350 mg, 6 Hours Postdose, 350 mg, read-out: Plasma concentration, Geometric Mean): 2620 ng/mL
